Where two headings read alike, the source gives them in different places. Blank lines part the entries; values can stand above or below the molecule they belong to.
Key:
β-lactamase, E. Coli JT4 [1] = molecular target: T1, β-lactamase, E. Coli JT4 (Escherichia coli, UniProt P62593); assay: β-Lactamase inhibition, automated chromagenic substrate assay; assay type: biochemical; conditions: read-out: concentration of compound for 50% inhibition of enzyme (converted)
T1 construct: preparation not described
T1 sequence (P62593 24-286 limits assumed): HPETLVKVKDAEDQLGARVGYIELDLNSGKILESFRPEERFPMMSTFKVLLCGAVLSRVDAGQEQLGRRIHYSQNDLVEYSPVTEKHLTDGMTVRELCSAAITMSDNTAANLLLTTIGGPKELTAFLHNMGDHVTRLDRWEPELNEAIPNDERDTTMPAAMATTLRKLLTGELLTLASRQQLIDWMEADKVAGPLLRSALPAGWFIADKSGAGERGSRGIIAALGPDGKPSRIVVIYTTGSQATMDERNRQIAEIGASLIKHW
Experimental: (§1) Method was automated hydroxyamine assay except for compounds marked + which were tested using the automated chromagenic substrate assay.
(§2) Results are presented as concentration of compounds in μg/ml for 50% inhibition of enzyme, except a percentage indicates amount of inhibition at maximum concentration of 20 μg/ml (50 μg/ml for asterisked figures).

[2] = molecular target: T2, β-lactamase, Ent. Cloacae P99 (Enterobacter cloacae, UniProt P05364); assay: as above; assay type: biochemical; conditions: for IC50: read-out: concentration of compound for 50% inhibition of enzyme (converted); for inhibition at 50 µg/mL: at 50 μg/ml (asterisked), read-out: amount of inhibition at maximum concentration
T2 construct: preparation not described
T2 sequence (P05364 21-381): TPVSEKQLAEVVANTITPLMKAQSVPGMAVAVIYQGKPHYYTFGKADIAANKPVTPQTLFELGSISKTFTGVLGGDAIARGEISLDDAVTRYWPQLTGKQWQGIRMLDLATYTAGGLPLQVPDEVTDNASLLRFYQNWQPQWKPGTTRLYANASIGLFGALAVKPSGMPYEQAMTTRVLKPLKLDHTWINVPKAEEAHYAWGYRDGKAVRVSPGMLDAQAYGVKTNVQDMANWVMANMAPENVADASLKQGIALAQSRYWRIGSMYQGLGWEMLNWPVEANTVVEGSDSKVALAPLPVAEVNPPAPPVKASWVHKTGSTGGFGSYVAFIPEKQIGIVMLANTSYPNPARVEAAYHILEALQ
Experimental: as §1, §2

[3] = molecular target: β-lactamase, Kleb aerog E70; assay: as above; assay type: biochemical
Experimental: as §1, §2

[4] = molecular target: T3, β-lactamase, Staph aureus Russel (Staphylococcus aureus, UniProt P00807); assay: as above; assay type: biochemical; conditions: at 50 μg/ml (asterisked), read-out: amount of inhibition at maximum concentration
Experimental: as §1, §2

β-lactamase, E. Coli JT4 [5] = molecular target: T1, β-lactamase, E. Coli JT4; assay: β-Lactamase inhibition, automated hydroxyamine assay; assay type: biochemical; conditions: for inhibition at 20 µg/mL: read-out: amount of inhibition at maximum concentration; for IC50: maximum concentration 20 μg/ml, read-out: concentration of compound for 50% inhibition of enzyme (converted)
Experimental: as §1, §2

[6] = molecular target: T2, β-lactamase, Ent. Cloacae P99; assay: as above; assay type: biochemical; conditions: for IC50: maximum concentration 20 μg/ml, read-out: concentration of compound for 50% inhibition of enzyme (converted); for inhibition at 20 µg/mL: at 20 μg/ml, read-out: amount of inhibition at maximum concentration
Experimental: as §1, §2

β-lactamase, Ps aerug A [7] = assay: as above; assay type: biochemical; conditions: for amount of inhibition at maximum concentration: at 20 μg/ml
Experimental: as §1, §2

[8] = test system: β-lactamase, P. Mirab C889; assay: as above; assay type: biochemical; conditions: for concentration of compound for 50% inhibition of enzyme: maximum concentration 20 μg/ml
Experimental: as §1, §2

[9] = molecular target: T3, β-lactamase, Staph aureus Russel; assay: as above; assay type: biochemical; conditions: at 20 μg/ml, read-out: amount of inhibition at maximum concentration
Experimental: as §1, §2

Escherichia coli 8 = assay: Antibacterial activity in vivo, mouse intraperitoneal infection; conditions: Expt R21 and R23
Experimental: (§3) Antibacterial activity in vivo [drawing 117] Experimental model: Mouse intraperitoneal infection Micro-organism: Escherichia coli 8 suspended in 3% AL1 mucin plus 1% carboxymethylcellulose
(§4) Dosing route: Subcutaneous
(§5) Dosing schedule: 1, 1.5, 2, 2.5 hours after infection

[10] = Tolerance of maximum total dose in the mouse infection experiment; assay type: in vivo; conditions: mice; subcutaneous; maximum total dose 100 mg/kg
Experimental: as §3, §4, §5
Maximum total dose was 100 mg/kg and this was tolerated by the mice.

[11] = molecular target: β-lactamase, P. Mirab C889; assay: β-Lactamase inhibition, automated chromagenic substrate assay; assay type: biochemical
Experimental: as §1, §2

β-lactamase, Ps aerug A [12] = assay: as above; assay type: biochemical; conditions: at 50 μg/ml (asterisked)
Experimental: as §1, §2

[13] = E. Coli JT4 β-lactamase, hydroxyamine assay, at 20 μg/ml
[14] = E. Coli JT4 β-lactamase, hydroxyamine assay

SMILES: CC(O)[C@@H]1C(=O)N2C(C(=O)OCc3ccccc3)=C([S+]([O-])c3ccccc3)C[C@H]12 (relative stereo) [Compound 82, Benzyl trans-6-(1-hydroxyethyl)-7-oxo-3-phenylsulphinyl-1-azabicyclo[3.2.0]hept-2-ene-2-carboxylate]
IC50 (β-lactamase, E. Coli JT4 [1]): 31.6 µM | IC50 [2]: 46.2 µM | concentration of compound for 50% inhibition of enzyme [3]: 2 µg/mL | inhibition at 50 µg/mL [4]: 20%

SMILES: CC[S+]([O-])C1=C(C(=O)OCc2ccccc2)N2C(=O)[C@@H](C(C)(C)O)[C@H]2C1 (relative stereo) [Compound 84, Benzyl 3-ethylsulphinyl-trans-6-(2-hydroxy-2-propyl)-7-oxo-1-azabicyclo[3.2.0]hept-2-ene-2-carboxylate]
inhibition at 20 µg/mL (β-lactamase, E. Coli JT4 [5]; [13]): 16% | IC50 [6]: 10.3 µM | concentration of compound for 50% inhibition of enzyme (β-lactamase, Ps aerug A [7]; maximum concentration 20 μg/ml): 12.1 µg/mL

SMILES: CC[S+]([O-])C1=C(C(=O)OCc2ccccc2)N2C(=O)[C@@H](C(C)(C)O)[C@H]2C1 (relative stereo) [Compound 86, Benzyl 3-ethylsulphinyl-trans-6-(2-hydroxy-2-propyl)-7-oxo-1-aza-bicyclo[3.2.0]hept-2-ene-2-carboxylate]
IC50 [6]: 6.62 µM

SMILES: CC[S+]([O-])C1=C(C(=O)OCc2ccccc2)N2C(=O)[C@H](C(C)(C)O)[C@H]2C1 (relative stereo) [Compound 88, Benzyl 3-ethylsulphinyl-cis-6-(2-hydroxy-2-propyl)-7-oxo-1-azabicyclo[3.2.0]hept-2-ene-2-carboxylate]
IC50 (β-lactamase, E. Coli JT4 [5]; [14]): 21.2 µM | IC50 [6]: 21.7 µM | amount of inhibition at maximum concentration ([8]; at 20 μg/ml): 13% | amount of inhibition at maximum concentration (β-lactamase, Ps aerug A [7]): 23% | inhibition at 20 µg/mL [9]: 19%

inhibition at 20 µg/mL [6]: 31% | concentration of compound for 50% inhibition of enzyme [8]: 1.2 µg/mL
SMILES: CC[S+]([O-])C1=C(C(=O)OCC(=O)c2ccc(Br)cc2)N2C(=O)C(CC=CC(=O)OC)C2C1 (single isomer, unassigned) [Compound 73, p-Bromophenacyl 3-ethylsulphinyl-6-(3-methoxycarbonylprop-2-en-1-yl)-7-oxo-1-azabicyclo[3.2.0]hept-2-ene-2-carboxylate]

SMILES: CC[S+]([O-])C1=C(C(=O)OCc2ccccc2)N2C(=O)CC2C1 (centres unmarked) [Compound 55, Benzyl 3-ethylsulphinyl-7-oxo-1-azabicyclo[3.2.0]hept-2-ene-2-carboxylate]
inhibition at 20 µg/mL (β-lactamase, E. Coli JT4 [5]): 28% | concentration of compound for 50% inhibition of enzyme [8]: 4 µg/mL | ED50 (Escherichia coli 8; Escherichia coli, 8, sc, 2.5 h, mouse i.p. infection with Escherichia coli 8, subcutaneous dosing 1, 1.5, 2, 2.5 hours after infection, total dose, read-out: CD50 Value mg/kg (total dose)): 5.2 mg/kg | CD50 Value mg/kg (total dose) (Escherichia coli 8; mouse i.p. infection with Escherichia coli 8, subcutaneous dosing 1, 1.5, 2, 2.5 hours after infection): 8.8 mg/kg | tolerance of maximum total dose [10]: tolerated

SMILES: CC[S+]([O-])C1=C(C(=O)OCc2ccccc2)N2C(=O)CC2C1 (centres unmarked) [Compound 57, Benzyl 3-ethylsulphinyl-7-oxo-1-azabicyclo[3.2.0]hept-2-ene-2-carboxylate]
IC50 (β-lactamase, E. Coli JT4 [1]): 28.2 µM | inhibition at 50 µg/mL [2]: 19% | amount of inhibition at maximum concentration ([3]; at 50 μg/ml (asterisked)): 17% | concentration of compound for 50% inhibition of enzyme [11]: 3.5 µg/mL | amount of inhibition at maximum concentration (β-lactamase, Ps aerug A [12]): 47%

SMILES: CC(=O)NCC[S+]([O-])C1=C(C(=O)OCc2ccccc2)N2C(=O)CC2C1 (centres unmarked) [Compound 63, Benzyl 3-(2-acetamidoethylsulphinyl)-7-oxo-1-azabicyclo[3.2.0]hept-2-ene-2-carboxylate]
inhibition at 20 µg/mL (β-lactamase, E. Coli JT4 [5]; [13]): 29% | inhibition at 20 µg/mL [6]: 16% | concentration of compound for 50% inhibition of enzyme [8]: 3.3 µg/mL

SMILES: CC(=O)Nc1ccc([S+]([O-])C2=C(C(=O)OCc3ccccc3)N3C(=O)CC3C2)cc1 (centres unmarked) [Compound 65, Benzyl 3-p-acetamidophenylsulphinyl-7-oxo-1-azabicyclo[3.2.0]hept-2-ene-2-carboxylate]
IC50 (β-lactamase, E. Coli JT4 [1]): 0.825 µM | inhibition at 50 µg/mL [2]: 47% | inhibition at 50 µg/mL [4]: 35%

SMILES: CC(=O)Nc1ccc([S+]([O-])C2=C(C(=O)OCc3ccccc3)N3C(=O)CC3C2)cc1 (centres unmarked) [Compound 67, Benzyl 3-p-acetamidophenylsulphinyl-7-oxo-1-azabicyclo[3,2,0]hept-2-ene-2-carboxylate]
IC50 (β-lactamase, E. Coli JT4 [1]): 1.84 µM | IC50 [2]: 118 µM

SMILES: COC(=O)C=CCC1C(=O)N2C1CC(Cl)([S+]([O-])c1ccccc1)C2C(=O)OCc1ccccc1 (stereo not drawn) [Compound 68, Benzyl 3-chloro-6-(3-methoxycarbonylprop-2-ene-1-yl)-7-oxo-3-phenylsulphinyl-1-azabicyclo[3.2.0]heptane-2α-carboxylate]
IC50 (β-lactamase, E. Coli JT4 [5]; [14]): 15.9 µM | inhibition at 20 µg/mL [6]: 25% | concentration of compound for 50% inhibition of enzyme [8]: 0.6 µg/mL

SMILES: COC(=O)C=CCC1C(=O)N2C(C(=O)OCc3ccccc3)=C([S+]([O-])c3ccccc3)CC12 (centres unmarked) [Compound 69, Benzyl 6-(3-methoxycarbonylprop-2-en-1-yl)-7-oxo-3-phenylsulphnyl-1-azabicyclo[3.2.0]hept-2-ene-2-carboxylate]
IC50 (β-lactamase, E. Coli JT4 [5]; [14]): 26.2 µM | inhibition at 20 µg/mL [6]: 23% | concentration of compound for 50% inhibition of enzyme [8]: 2.4 µg/mL | amount of inhibition at maximum concentration (β-lactamase, Ps aerug A [7]): 44%

SMILES: COC(=O)C=CCC1C(=O)N2C(C(=O)OCc3ccccc3)=C([S+]([O-])c3ccccc3)CC12 (centres unmarked) [Compound 71, Benzyl 6-(3-methoxycarbonylprop-2-en-1-yl)-7-oxo-3-phenylsulphinyl-1-azabicyclo[3.2.0]hept-2-ene-2-carboxylate]
IC50 (β-lactamase, E. Coli JT4 [5]; [14]): 18.3 µM | concentration of compound for 50% inhibition of enzyme [8]: 2.0 µg/mL

SMILES: CC[S+]([O-])C1=C(C(=O)OC2OC(=O)c3ccccc32)N2C(=O)C(CC=CC(=O)OC)C2C1 (centres unmarked) [Compound 78, Phthalidyl 3-ethylsulphinyl-6-(3-methoxycarbonylprop-2-en-1-yl)-7-oxo-1-azabicyclo[3.2.0]hept-2-ene-2-carboxylate]
inhibition at 20 µg/mL (β-lactamase, E. Coli JT4 [5]; [13]): 16% | IC50 [6]: 19.2 µM

SMILES: CC[S+]([O-])C1=C(C(=O)OCc2ccccc2)N2C(=O)C(Cc3ccccc3)C2C1 (centres unmarked) [Compound 80, Benzyl 6-benzyl-3-ethylsulphinyl-7-oxo-1-azabicyclo[3.2.0]hept-2-ene-2-carboxylate]
IC50 (β-lactamase, E. Coli JT4 [1]): 20.8 µM | IC50 [2]: 52 µM | concentration of compound for 50% inhibition of enzyme [3]: 24 µg/mL
